The values below are quoted from earlier work in patent publication US6872696B2, “Particle with substituted polyvinyl alcohol coating” (Genencor International, Inc., priority 2000, dated 2005).

The conditions of this series: neutral unreacted compound in water, 25 degrees C.
Turning to `OCCS` [2-mercaptoethanol], the “Solubility g/100 ml H2O” value is on record as “infinite”.
Regarding `CCS` [ethanethiol], the “Solubility g/100 ml H2O” value is 0.67 g/100 ml H2O.
On to `O=C(O)/C=C\C(=O)O` [maleic], for which the “Solubility g/100 ml H2O” value was “infinite”.
